Patent US6589325B1, “Phthalocyanine compounds, water-base ink compositions and colored products” (Nippon Kayaku Kabushiki Kaisha, priority 1999, dated 2003)

Tests used:
[1] = water fastness of recorded image, stirred in water; type: physicochemical; conditions: for water fastness (summary in words): plain paper and special paper; for Water fastness Judgment / Water fastness (ΔE): stirred in water 2 min; for Water fastness Judgment: JIS fading gray scale; for Water fastness (ΔE): color difference before/after
Protocol: (§1) The solution of the composition as described below was prepared and filtered through a 0.45 μm membrane filter to prepare the water-based ink compositions for ink-jetting. Ion-exchanged water was used. The water-based ink compositions were prepared with water and ammonium hydroxide to have a pH of 8-10 and a total amount of 100 parts.
(§2) By using an ink-jet printer (Trade name: PICTY80L, made by NEC KK), ink-jet recordings were done on three kinds of recording paper: a plain paper (Printer Paper A4, TLB5A4S, made by Canon KK), a special paper A (Color BJ Paper LC101, made by Canon KK), a special paper B (Color Image Jet Coat Paper STX73A4, made by Sharp KK). The test results on hue, light fastness, water fastness and color rendering property in recorded images by the water-based ink compositions (containing the compounds of Example 1 to 2) of the present invention are shown in Table 2.
(§3) The ink compositions for two comparative examples were prepared so as to coincide in optical density with the black ink of the present invention as in the above (A), but the respective ink compositions contained C.I. Direct Black 19 (represented by following Formula), an azo colorant generally applied for an ink-jet black colorant (Comparative example 1) and the compound (represented by following Formula) described in JP Laid-Open No. 140270/1990 (Comparative example 2) respectively in place of the colorant. The test results on hue, light fastness, water fastness and color rendering property in recorded images pictured by the ink compositions for the comparative examples also are shown in Table 2. [drawing 4]
The recorded material was set in a beaker filled with water, stirred for 2 min and air-dried. The change in the recorded image was determined based on the JIS fading gray scale. Color difference (ΔE) between before and after the treatment also was determined by the above colorimetry system.

[2] = light fastness of recorded image, carbon arc fade meter; type: physicochemical; conditions: for light fastness (summary in words): depending on the kind of recording material; for Light fastness Judgment / Light fastness (ΔE): carbon arc 20 hours; for Light fastness Judgment: blue scale JIS L-0841; for Light fastness (ΔE): color difference before/after
Protocol: as §1, §2, §3
A carbon arc fade meter (by Suga Testing Machine KK) was used to irradiate carbon arc on the recorded image for 20 hours. Grade was determined based on blue scale grade as prescribed in JIS L-0841. Color difference (ΔE) between before and after the irradiation also was determined by the above colorimetry system.

water fastness (summary in words) [1]	Water fastness Judgment ([1]; plain paper)	Water fastness (ΔE) ([1]; plain paper)	Water fastness Judgment ([1]; special paper A)	Water fastness (ΔE) ([1]; special paper A)	Water fastness Judgment ([1]; special paper B)	Water fastness (ΔE) ([1]; special paper B)	light fastness (summary in words) [2]	Light fastness Judgment ([2]; plain paper)	Light fastness (ΔE) ([2]; plain paper)	Light fastness Judgment ([2]; special paper A)	Light fastness (ΔE) ([2]; special paper A)	Light fastness Judgment ([2]; special paper B)	Light fastness (ΔE) ([2]; special paper B)	SMILES
inferior	Grade 2	(11.5)	Grade 4	(2.9)	Grade 4	(2.8)	unstable quality	Grade 4	(2.0)	Grade 3-4	(4.1)	Grade 4	(1.5)	Nc1ccc(N=Nc2ccc(N=Nc3c(S(=O)(=O)[O-])cc4cc(S(=O)(=O)[O-])c(N=Nc5ccc(N=Nc6ccc(N)cc6N)cc5)c(O)c4c3N)cc2)c(N)c1.[Na+].[Na+] [Comparative Example 1, C.I. Direct Black 19]
inferior	Grade 3	(6.2)	Grade 5	(1.0)	Grade 2	(10.3)	unstable quality	Grade 4	(1.3)	Grade 3	(8.0)	Grade 4	(2.8)	Nc1ccc2cc(S(=O)(=O)O)c(N=Nc3ccc(N=Nc4cc(C(=O)O)cc(C(=O)O)c4)c4ccccc34)c(O)c2c1 [Comparative Example 2]
